The results in this text go back to publication PMC3022373 (Journal of medicinal chemistry, 2010).

The target of the assay is T1, hiCE (Homo sapiens, UniProt O00748).
T1 sequence (O00748 27-559): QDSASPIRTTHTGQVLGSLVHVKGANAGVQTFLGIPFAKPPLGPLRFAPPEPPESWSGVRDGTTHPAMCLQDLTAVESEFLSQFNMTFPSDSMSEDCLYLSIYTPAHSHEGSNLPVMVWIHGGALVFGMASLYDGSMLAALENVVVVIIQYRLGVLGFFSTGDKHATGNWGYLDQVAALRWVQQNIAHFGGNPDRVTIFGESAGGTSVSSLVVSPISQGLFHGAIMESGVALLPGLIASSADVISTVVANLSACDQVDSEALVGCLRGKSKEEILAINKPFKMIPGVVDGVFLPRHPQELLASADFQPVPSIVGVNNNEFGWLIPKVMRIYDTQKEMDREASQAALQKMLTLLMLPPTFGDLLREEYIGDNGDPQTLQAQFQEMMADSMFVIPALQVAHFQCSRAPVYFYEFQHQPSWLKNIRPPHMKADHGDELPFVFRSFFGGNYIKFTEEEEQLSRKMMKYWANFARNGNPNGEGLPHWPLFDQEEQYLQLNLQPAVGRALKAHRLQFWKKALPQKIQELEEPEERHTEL
The assay is classed as biochemical.

With `O=C(C(=O)c1ccccn1)c1cccc(NC(=O)c2ccc(Cl)cc2Cl)c1` [15d], the “selectivity in favor of hiCE inhibition versus hCE1” value is on record as not below 100 fold.

Consider `O=C(Nc1cccc(C(=O)C(=O)c2ccccn2)c1)c1ccc(C(F)(F)F)cc1` [15f], for which the “selectivity in favor of hiCE inhibition versus hCE1” value is recorded as not below 100 fold.
